Measured values as given in ChEMBL document CHEMBL1147010, “Aziridine-2,3-dicarboxylate inhibitors targeting the major cysteine protease of Trypanosoma brucei as lead trypanocidal agents” (Bioorg Med Chem Lett, 2006).
Activity calls are given as the source filed them. The calls are words filed in the database; no cut-off is given here.

Experiments:
Rhodesain [1] = molecular target: T1, Rhodesain (Trypanosoma brucei rhodesiense, UniProt Q95PM0); assay: Inhibition of Trypanosoma brucei rhodesiense rhodesain in presence of 31.6 uM substrate Cbz-Phe-Arg-AMC
Rhodesain [2] = molecular target: T1, Rhodesain; assay: Inhibition of Trypanosoma brucei rhodesiense rhodesain
[3] = test system: Trypanosoma brucei brucei; assay: Trypanocidal activity against Trypanosoma brucei brucei after 48 hrs; format: functional, organism-based
J774 [4] = assay: Cytotoxicity against J774.1 cell line after 48 hrs; format: functional, cell-based; conditions: Mus musculus, J774, 48 h
J774 [5] = assay: Selectivity index, IC50 for J774.1/IC50 for Trypanosoma brucei brucei; format: functional
[6] = molecular target: Rhodesain (Trypanosoma brucei rhodesiense) (UniProt Q95PM0); assay: Inhibition of Trypanosoma brucei rhodesiense rhodesain at 140 uM
J774 [7] = assay: Cytotoxicity against J774.1 cell line after 72 hrs; format: functional, cell-based; conditions: Mus musculus, J774, 72 h
[8] = molecular target: Rhodesain (Trypanosoma brucei rhodesiense) (UniProt Q95PM0); assay: Inhibition of Trypanosoma brucei rhodesiense rhodesain at 200 uM

Chain of Rhodesain (Trypanosoma brucei rhodesiense) (Q95PM0 1-450): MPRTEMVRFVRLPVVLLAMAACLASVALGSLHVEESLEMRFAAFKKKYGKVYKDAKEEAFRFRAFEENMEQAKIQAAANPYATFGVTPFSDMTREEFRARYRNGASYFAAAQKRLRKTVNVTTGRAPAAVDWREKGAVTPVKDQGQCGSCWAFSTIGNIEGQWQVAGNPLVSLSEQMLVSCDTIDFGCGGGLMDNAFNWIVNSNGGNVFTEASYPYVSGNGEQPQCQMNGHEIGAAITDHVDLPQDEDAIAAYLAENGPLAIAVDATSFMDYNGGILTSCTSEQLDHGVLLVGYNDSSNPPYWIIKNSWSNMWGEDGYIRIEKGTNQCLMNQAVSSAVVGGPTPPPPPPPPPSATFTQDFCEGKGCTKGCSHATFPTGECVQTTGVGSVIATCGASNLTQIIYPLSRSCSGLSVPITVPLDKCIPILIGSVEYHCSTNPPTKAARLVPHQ
T1 sequence (Q95PM0 whole entry): as the sequence (Q95PM0 1-450) above

inhibition [6] | inhibition [8] | SMILES | Ki (Rhodesain [1]) | Ki (Rhodesain [2]) | IC50 [3] | IC50 (J774 [4]) | Ratio IC50 (J774 [5]) | IC50 (J774 [7])
– | – | CCOC(=O)[C@@H]1[C@@H](C(=O)OCC)N1C(=O)[C@@H]1CN1C(=O)[C@H](CC(C)C)NC(=O)OC(C)(C)C | 360 nM | 300 nM | 25.7 µM | 50 µM | 1.9 | –
inactive | – | C[C@H](NC(=O)[C@@H](Cc1ccccc1)NC(=O)OC(C)(C)C)C(=O)N1[C@H](C(=O)OCc2ccccc2)[C@H]1C(=O)OCc1ccccc1 | – | – | 34.3 µM | – | 1.3 | 43.7 µM
– | 27.9% | N=C(N)c1ccc(OCCCCCOc2ccc(C(=N)N)cc2)cc1.O=S(=O)(O)CCO.O=S(=O)(O)CCO [PENTAMIDINE ISETHIONATE] | – | – | 0.0029 µM | 41.6 µM | 14345 | –
